The values below come from patent publication US7923443B2, “Pharmaceutical composition for the treatment of bone fracture” (Dong Wha Pharmaceutical Co., Ltd., priority 2004, dated 2011).

What all share (assay type): in vivo, S.D. rats
One series has as its system rib fracture. Description: Effect of promoting fracture healing in rib fracture-induced rat model (overall). As to conditions: compared with the results for N-hydroxy benzamidine compound above. How it is done:
(§1) The benzamidine compound of Chemical Formula 1 was assayed for therapeutic effect on bone fracture in rat models subjected to rib fracture. Starting from 2 days after the induction of rib fracture, the administration of the benzamidine compound was continued for one, two, three and four weeks. Changes in (body weight, body weight gain, volume of bony callus, bone density, bone strength, and bone histopathology were observed.
(§2) A total of 80 S.D. rats (10-week-old, BioGenomics, Korea) was adapted to a laboratory environment for 12 days before being used in experiments. While being housed at a density of two or three to a plastic cage, the experimental animals were kept in a breeding room under controlled temperature (20 to 25° C.) and humidity (30 to 35%). Under light-dark cycles of 12 hours, the rats were allowed to have free access to feedstuff and tap water.
(§3) 10 mg and 50 mg of N-hydroxy-4-{5-[4-(5-isopropyl-2-methyl-1,3-thiazol-4-yl)phenoxy]pentoxy}benzamidine were completely dissolved in 5 ml of sterilized distilled water. The benzamidine compound in the solutions was orally administered at doses of 10 mg and 50 mg per kg of body weight once a day for one, two, three and four weeks from day 2 of the surgery. […]

Series [1] deals with bony callus. As to the kind of experiment: Histomorphometry of bony callus (connective, cartilage, bone tissue content), 8th rib. How it is done:
as §1, §2
(§4) 10 mg and 50 mg of N-hydroxy-4-{5-[4-(5-isopropyl-2-methyl-1,3-thiazol-4-yl)phenoxy]pentoxy}benzamidine were completely dissolved in 5 ml of sterilized distilled water. The benzamidine compound in the solutions was orally administered at doses of 10 mg and 50 mg per kg of body weight once a day for one, two, three and four weeks from day 2 of the surgery.
(§5) All the experimental animals were anesthetized with ketamine hydrochloride and xylazine hydrochloride and underwent an operation for inducing a fracture on the 8th and the 9th rib. In this regard, the ribs were transversely cut with operation scissors. After the fracture induction, the fractured ribs were assembled to be aligned with each other and the wound cavity was closed through skin suture.
(§6) The 8th rib enucleated after the fracture induction was fixed in 10% neutral formalin, followed by decalcification by changing a decalcification solution (2.24% formic acid, 0.5N […]) with fresh solution once a day for five days. After completion of the decalcification, the rib was embedded in paraffin. The paraffin-embedded tissue was sliced at a thickness of 3 to 4 μm, stained with hematoxylin-eosin or Masson's trichrome and observed through an optical microscope.
From the rib tissue specimen prepared above, the amounts of the connective tissue, cartilage and bone tissue in the bony callus were examined using an Analysis Image processing system (SIS Germany) and are represented as percentages in Tables 3 to 5, below.

Series [2] concerns bony callus. Description: Histopathological observation of 8th rib (FIG. 1). As to conditions: all administration time periods; versus non-treated group; dose-dependent. On the procedure:
FIG. 1 an optical microphotograph showing sliced tissue specimens of the 8th rib extracted after fracture induction, stained with Masson's trichrome.
as §1, §2, §3

In series [3] the test system is bony callus. As to the kind of experiment: Bone density of bony callus (DEXA), 9th rib. How it is done:
as §1, §2, §4, §5
The 9th rib enucleated after the fracture induction was measured for the bone density around the bony callus using dual-energy x-ray absorptiometry (DEXA, PXImus; Lunar Medison, Wis.) and the bone density is calculated in mg/cm^2 in Table 7.

The test system of series [4] is bony callus. As to the kind of experiment: Bone strength of bony callus (three point bending test), 9th rib. On the procedure: as §1, §2, §4, §5
The bone strength around the fracture face at which a bony callus was formed in the 9th rib enucleated after the fracture induction was determined from three point bending tests using an Instron material testing system (Instron 6022; Instron, USA; speed 20 mm/min).

In series [5] the test system is osteoclasts in the bony callus. Description: Number of osteoclasts in the bony callus, 8th rib. On the procedure:
as §1, §2, §4, §5, §6
Furthermore, the number of osteoclasts in the bony callus, particularly, within an area of (200 μm)^2 on the fracture surface at which endochondral ossification commenced, was measured using an Analysis Image processing system (SIS Germany).

Series [6] has as its system bony callus formed around the fractured 8th and 9th ribs. Description: Volume of bony callus in rib fracture-induced rat model. On the procedure: as §1, §2, §4, §5
On the sacrificial day, the bony callus formed around the fractured 8th and 9th ribs was separated from adjacent tissues and taken out of all experimental animals. The enucleated bony calluses were measured for long and short diameters in millimeters. The volume of the bony callus was calculated from the measurements using the following mathematic formula 1. Volume of Bony callus=½×(a×b^2) Formula 1
a: long diameter of bony callus,
b: short diameter of bony callus.

Series [7] is described as follows: Body weight gain in rib fracture-induced rat model. How it is done:
as §1, §2, §4, §5
All the experimental animals were measured for body weight one day before the operation, the day of the operation, the day of administration, and 7, 14, 21 and 28 days after administration. In order to reduce the difference among individuals due to feedstuff intake, all experimental animals were starved for 18 hours or more on the day of the measurement. Also, to minimize the difference of change in body weight of individual animals, body weight gain during time periods from the day of the operation to 7, 14, 21 and 28 days after the administration were calculated.

Where [8] appears, read: 10 mg/kg oral once a day, 7 days after administration.
The mark [9] stands for this setting: 10 mg/kg oral once a day, 14 days after administration.
[10] abbreviates: 10 mg/kg oral once a day, 21 days after administration.
Where [11] appears, read: 10 mg/kg oral once a day, 28 days after administration.
Setting [12] is: 50 mg/kg oral once a day, 7 days after administration.
The mark [13] stands for this setting: 50 mg/kg oral once a day, 14 days after administration.
Setting [14] is: 50 mg/kg oral once a day, 21 days after administration.
[15] abbreviates: 50 mg/kg oral once a day, 28 days after administration.

The structures appear in SMILES notation. Marks after values point to notes of the source that are not given here.

On to `Cc1nc(-c2ccc(OCCCCCOc3ccc(C(=N)NO)cc3)cc2)c(C(C)C)s1` [N-hydroxy-4-{5-[4-(5-isopropyl-2-methyl-1,3-thiazol-4-yl)phenoxy]pentoxy}benzamidine], for which the “Healing effects on bone fracture” value with rib fracture is recorded as “same healing effects as above”.

Take `Cc1nc(-c2ccc(OCCCCCOc3ccc(C(=N)N)cc3)cc2)c(C(C)C)s1` [4-{5-[4-(5-isopropyl-2-methyl-1,3-thiazol-4-yl)phenoxy]pentoxy}benzamidine]: the “Healing effects on bone fracture” value with rib fracture is given as “same healing effects as above”.

On to `Cc1nc(-c2ccc(OCCCCCOc3ccc(C(=N)NO)cc3)cc2)c(C(C)C)s1` [Cpd. Of Chemical Formula 1, N-hydroxy-4-{5-[4-(5-isopropyl-2-methyl-1,3-thiazol-4-yl)phenoxy]pentoxy}benzamidine], for which the “Changes in Content of Bone Tissue in Bony Callus” value with bony callus [1] (setting [8]) is 37.95 ± 6.44 % relative to total bony callus; in the series on bony callus [1] (setting [9]) it was 54.31 ± 9.50 % relative to total bony callus; in the series on bony callus [1] (setting [10]) it was 66.71 ± 5.41 % relative to total bony callus; in the series on bony callus [1] (setting [11]), 83.30 ± 4.43 % relative to total bony callus; in the series on bony callus [1] (setting [12]), 39.24 ± 14.12 % relative to total bony callus; in the series with bony callus [1] (setting [13]), 55.94 ± 8.38 % relative to total bony callus. In addition, the results for the “Changes in Content of Bone Tissue in Bony Callus” value in the series with bony callus [1] (setting [14]) and with bony callus [1] (setting [15]) were 74.07 ± 8.43 % relative to total bony callus and 87.27 ± 8.97 % relative to total bony callus, respectively. Besides, the “Changes in Content of Cartilage Tissue in Bony Callus” value is recorded as 24.79 ± 5.43 % relative to total bony callus in the series on bony callus [1] (setting [8]); 23.77 ± 3.44 % relative to total bony callus in the series on bony callus [1] (setting [9]); 18.51 ± 2.29 % relative to total bony callus with bony callus [1] (setting [10]); 6.59 ± 2.02 % relative to total bony callus with bony callus [1] (setting [11]); 22.42 ± 5.45 % relative to total bony callus with bony callus [1] (setting [12]); 20.09 ± 6.38 % relative to total bony callus in the series with bony callus [1] (setting [13]). Besides, the “Changes in Content of Cartilage Tissue in Bony Callus” value in the series on bony callus [1] (setting [14]) is given as 11.49 ± 2.31 % relative to total bony callus; in the series with bony callus [1] (setting [15]), 5.37 ± 1.38 % relative to total bony callus. Moreover, the “Changes in Content of Connective Tissue of Bony Callus” value with bony callus [1] (setting [8]) was 33.19 ± 3.06 % relative to total bony callus; with bony callus [1] (setting [9]), 6.28 ± 0.72 % relative to total bony callus; in the series with bony callus [1] (setting [10]) it was 5.55 ± 1.42 % relative to total bony callus; in the series on bony callus [1] (setting [11]), 3.20 ± 0.89 % relative to total bony callus; in the series with bony callus [1] (setting [12]), 29.51 ± 5.70 % relative to total bony callus; in the series on bony callus [1] (setting [13]) it was 6.06 ± 0.44 % relative to total bony callus. For the same compound, the “Changes in Content of Connective Tissue of Bony Callus” value is recorded as 3.58 ± 0.62 % relative to total bony callus in the series with bony callus [1] (setting [14]) and 2.59 ± 0.52 % relative to total bony callus with bony callus [1] (setting [15]). In the series on bony callus [2], the “Bone tissue in bony callus, histopathological observation (FIG. 1)” value is given as “increased bone tissue in bony callus in all administration time periods”. Also, the “Changes in Bone Density of Bony Callus” value was determined as 0.24 ± 0.04 mg/cm^2 with bony callus [3] (setting [8]); 0.32 ± 0.04 mg/cm^2 in the series with bony callus [3] (setting [9]); 0.39 ± 0.04 mg/cm^2 in the series with bony callus [3] (setting [10]); 0.55 ± 0.06 mg/cm^2 with bony callus [3] (setting [11]); 0.24 ± 0.03 mg/cm^2 in the series with bony callus [3] (setting [12]); 0.32 ± 0.04 mg/cm^2 with bony callus [3] (setting [13]). Moreover, the “Changes in Bone Density of Bony Callus” value with bony callus [3] (setting [14]) turned out to be 0.44 ± 0.07 mg/cm^2; in the series with bony callus [3] (setting [15]) it was 0.57 ± 0.04 mg/cm^2. The “Changes in bone strength of bony callus” value is 2.15 ± 0.42 Nos. of Impact applied in the series on bony callus [4] (setting [8]); 2.57 ± 0.65 Nos. of Impact applied in the series with bony callus [4] (setting [9]); 3.10 ± 0.40 Nos. of Impact applied in the series with bony callus [4] (setting [10]); 3.26 ± 0.43 Nos. of Impact applied with bony callus [4] (setting [11]); 2.35 ± 0.47 Nos. of Impact applied in the series on bony callus [4] (setting [12]); 2.84 ± 0.34 Nos. of Impact applied with bony callus [4] (setting [13]). Also, the entries for the “Changes in bone strength of bony callus” value with bony callus [4] (setting [14]) and with bony callus [4] (setting [15]) were 3.23 ± 0.35 Nos. of Impact applied and 3.35 ± 0.38 Nos. of Impact applied, respectively. Further, the “Changes in Population of Osteoclasts within Bony Callus” value was 43.80 ± 3.83 Counts present within (200 μm)^2 of bony callus in series [5] (setting [8]); 50.60 ± 2.70 Counts present within (200 μm)^2 of bony callus in series [5] (setting [9]); 31.00 ± 6.67 Counts present within (200 μm)^2 of bony callus in series [5] (setting [10]); 21.60 ± 3.58 Counts present within (200 μm)^2 of bony callus in series [5] (setting [11]); 42.60 ± 4.62 Counts present within (200 μm)^2 of bony callus in series [5] (setting [12]); 53.60 ± 2.41 Counts present within (200 μm)^2 of bony callus in series [5] (setting [13]). Besides, the results for the “Changes in Population of Osteoclasts within Bony Callus” value in series [5] (setting [14]) and in series [5] (setting [15]) were 22.20 ± 3.03 Counts present within (200 μm)^2 of bony callus and 17.60 ± 2.97 Counts present within (200 μm)^2 of bony callus, respectively. The “Changes in Bony Callus Volume” value in series [6] (setting [8]) is recorded as 12.84 ± 4.42* mm^3; in series [6] (setting [9]) it was 5.47 ± 1.81* mm^3; in series [6] (setting [10]) it was 4.73 ± 2.13* mm^3; in series [6] (setting [11]) it was 3.96 ± 2.41* mm^3; in series [6] (setting [12]) it was 8.62 ± 3.43* mm^3; in series [6] (setting [13]), 4.36 ± 1.44* mm^3. For the same compound, the “Changes in Bony Callus Volume” value in series [6] (setting [14]) was 3.84 ± 1.86* mm^3; in series [6] (setting [15]), 3.37 ± 0.79* mm^3. In addition, the “Changes in Body Weight Gain” value in series [7] (setting [8]) is 16.00 ± 13.55 g; in series [7] (setting [9]), 44.40 ± 14.54 g; in series [7] (setting [10]) it was 46.40 ± 22.39 g; in series [7] (setting [11]) it was 61.20 ± 22.81 g; in series [7] (setting [12]) it was 14.80 ± 08.81 g; in series [7] (setting [13]), 36.82 ± 29.52 g. The “Changes in Body Weight Gain” value in series [7] (setting [14]) is 68.60 ± 16.65 g; in series [7] (setting [15]), 84.40 ± 23.37 g.
